From PMC7126094 (Bioorganic & Medicinal Chemistry Letters, 2019)
Entries after “also recorded” stand apart in the source; their conditions may differ. Where two headings read alike, the source gives them in different places.

What was measured:
hERG = hERG (Homo sapiens, UniProt Q12809); experiment: hERG binding assay
[1] = human, microsomes
[2] = rat, microsomes
[3] = mouse, microsomes
[4] = tested on: VERO: African green monkey kidney cell line
[5] = tested on: HFL-1: human embryonic lung cell line
[6] = tested on: L929: mouse fibroblast cell line
[7] = tested on: NIH 3T3: mouse embryonic fibroblast cell line
[8] = tested on: CHO-K1: Chinese hamster ovary cell line
in vitro = settings: African green monkey

hERG, sequence (Q12809 whole entry): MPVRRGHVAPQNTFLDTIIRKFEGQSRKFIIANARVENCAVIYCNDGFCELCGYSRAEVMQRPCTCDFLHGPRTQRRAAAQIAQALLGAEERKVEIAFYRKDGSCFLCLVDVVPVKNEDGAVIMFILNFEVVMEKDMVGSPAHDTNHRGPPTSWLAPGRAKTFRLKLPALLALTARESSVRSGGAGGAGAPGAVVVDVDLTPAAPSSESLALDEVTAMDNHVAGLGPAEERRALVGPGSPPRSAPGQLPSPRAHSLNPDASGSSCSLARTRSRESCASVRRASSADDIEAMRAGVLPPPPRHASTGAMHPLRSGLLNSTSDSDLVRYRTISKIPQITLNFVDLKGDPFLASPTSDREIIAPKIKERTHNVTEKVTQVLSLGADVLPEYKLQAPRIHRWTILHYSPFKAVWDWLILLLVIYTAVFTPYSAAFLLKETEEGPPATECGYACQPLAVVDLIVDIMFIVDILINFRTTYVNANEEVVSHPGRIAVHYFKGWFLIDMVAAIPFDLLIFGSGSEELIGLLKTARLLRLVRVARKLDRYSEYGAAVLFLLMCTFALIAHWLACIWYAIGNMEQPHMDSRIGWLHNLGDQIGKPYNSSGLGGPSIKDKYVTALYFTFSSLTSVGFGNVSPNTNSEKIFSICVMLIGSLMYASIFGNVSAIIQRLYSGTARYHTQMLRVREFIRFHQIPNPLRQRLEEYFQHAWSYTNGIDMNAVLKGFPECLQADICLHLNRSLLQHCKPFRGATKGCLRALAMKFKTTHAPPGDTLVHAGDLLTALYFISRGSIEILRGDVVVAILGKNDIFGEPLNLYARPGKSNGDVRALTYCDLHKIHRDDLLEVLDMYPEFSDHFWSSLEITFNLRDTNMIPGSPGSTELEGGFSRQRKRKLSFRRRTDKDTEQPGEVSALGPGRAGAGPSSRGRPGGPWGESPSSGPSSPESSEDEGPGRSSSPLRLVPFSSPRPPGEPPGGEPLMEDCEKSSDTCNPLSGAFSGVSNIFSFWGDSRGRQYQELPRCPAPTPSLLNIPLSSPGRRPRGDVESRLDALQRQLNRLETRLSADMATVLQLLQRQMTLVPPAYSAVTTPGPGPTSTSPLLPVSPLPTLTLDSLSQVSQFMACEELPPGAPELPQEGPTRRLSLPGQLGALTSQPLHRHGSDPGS

CCCCNc1[nH]c2c(F)cc(F)cc2c(=O)c1C(C)=O [Compound 6k, 3-Acetyl-2-(butylamino)-6,8-difluoroquinolin-4(1H)-one]
inhibitory effect on MERS-CoV (in words) (MERS-CoV): no inhibitory effect

CC(C)C(=O)c1c(Nc2ccc(F)c(F)c2F)[nH]c2c(F)cc(F)cc2c1=O [Compound 6u, 6,8-Difluoro-3-isobutyryl-2-((2,3,4-trifluorophenyl)amino)quinolin-4(1H)-one]
hERG binding affinity (in words) (hERG): low hERG binding affinity
metabolic stability (in words) [1]: good metabolic stability
metabolic stability (in words) [2]: good metabolic stability
metabolic stability (in words) [3]: good metabolic stability
cytotoxicity (in words) [4]: no cytotoxicity
cytotoxicity (in words) [5]: no cytotoxicity
cytotoxicity (in words) [6]: no cytotoxicity
cytotoxicity (in words) [7]: no cytotoxicity
cytotoxicity (in words) [8]: no cytotoxicity
IC50 (in vitro): 86.1 µM

CC(=O)c1c(NC(C)C)[nH]c2c(C(C)C)cccc2c1=O [Compound 6a, 3-Aetyl-8-isopropyl-2-(isopropylamino)quinolin-4(1H)-one]
inhibitory effect on MERS-CoV (in words) (MERS-CoV): no inhibitory effects

5,6,8-Tichloro-2-((2,4-difluorophenyl)amino)-3-isobutyrylquinolin-4(1H)-one [Compound 6y]
IC50 (MERS-CoV; read-out: IC50 (MERS-CoV inhibitory activity)): 0.129 ± 0.026 µM

COc1cccc(Nc2[nH]c3c(F)cc(F)cc3c(=O)c2C(C)=O)c1 [Compound 6p, 3-Acetyl-6,8-difluoro-2-((3-methoxyphenyl)amino)quinolin-4(1H)-one]
inhibitory effect on MERS-CoV (in words) (MERS-CoV): no inhibitory effects

CC(=O)c1c(N2CCCCC2)[nH]c2c(F)cc(F)cc2c1=O [Compound 6i, 3-Acetyl-6,8-difluoro-2-(piperidin-1-yl)quinolin-4(1H)-one]
inhibitory effect on MERS-CoV (in words) (MERS-CoV): no inhibitory effect

CC(C)Nc1[nH]c2c(C(F)(F)F)cc(Cl)cc2c(=O)c1C(=O)c1ccccc1 [Compound 6c, 3-Bnzoyl-6-chloro-2-(isopropylamino)-8-(trifluoromethyl)quinolin-4(1H)-one]
inhibitory effect on MERS-CoV (in words) (MERS-CoV): detrimental for inhibitory effect; also recorded: completely abolished activity

CC(=O)c1c(N2CCOCC2)[nH]c2c(F)cc(F)cc2c1=O [Compound 6j, 3-Acetyl-6,8-difluoro-2-morpholinoquinolin-4(1H)-one]
inhibitory effect on MERS-CoV (in words) (MERS-CoV): no inhibitory effect

CC(=O)c1c(NC(C)C)[nH]c2c(C)cc(C)cc2c1=O [Compound 6b, 3-Aetyl-2-(isopropylamino)-6,8-dimethylquinolin-4(1H)-one]
inhibitory effect on MERS-CoV (in words) (MERS-CoV): no inhibitory effects

COc1ccc(Nc2[nH]c3c(F)cc(F)cc3c(=O)c2C(C)=O)cc1 [Compound 6q, 3-Acetyl-6,8-difluoro-2-((4-methoxyphenyl)amino)quinolin-4(1H)-one]
inhibitory effect on MERS-CoV (in words) (MERS-CoV): no inhibitory effects
